# Reference: patent publication US20220184164A1, “PREPARATIONS CONTAINING BERRY EXTRACTS FOR USE IN THE PROPHYLAXIS AND/OR TREATMENT OF VIRAL INFECTIONS CAUSED BY HERPESVIRIDAE” (Evonik Operations GmbH, priority 2019, published 2022)
# Tests used:
# HSV-1 = assay: Anti-viral assay: GFP-encoding HSV-1 infection of pre-treated BHK cells, infected cells counted; type: cell-based, herpes simplex virus 1
# Method: (§1) BHK cells were incubated with decreasing concentration of the solubilized test compounds for approx. 1 h. All concentrations were analyzed by six independent replicates on a black 96-well plate (PerkinElmer). Cells were infected with GFP-encoding wildtype HSV-1 virus and incubated for two days. Two days after infection, HSV-1-infected cells and GFP expressing cells were directly counted using the PerkinElmer Ensight system with optical cell culture plates. The instrument was controlled by […]. Anti-viral assays for HHV8 and mCMV were performed accordingly.
# The cells were subsequently infected with GFP-encoding HSV at a multiplicity of infection of 2.5, and infected GFP-expressing cells were counted one day after infection using the PerkinElmer Ensight system. […] Thus, the sugar is not required as potential co-factor for drug uptake.
# HHV-8 = assay: Anti-viral assay: GFP-encoding HHV-8 infection, infected cells counted; type: cell-based, Herpes virus 8
# Method: as §1
# The concentrations of materials were again adjusted to the same levels of anthocyanins (except the single berry extracts). No treatment or only maltodextrin served as controls. The cells were subsequently infected with GFP-encoding HHV-8, and infected GFP-expressing cells were counted two days after infection using the PerkinElmer Ensight system.
# [1] = tested on: HSV-1 related intracellular β-Amyloid deposition in SH-SY5Y (neuroblastoma) cells; assay: β-Amyloid assay: intracellular deposition of β-Amyloid in HHV-1-infected SH-SY5Y cells (immunofluorescence, qualitative); type: cell-based; details: 500, 250 and 125 μg/ml
# Method: Samples were fixed using Histofix and permeabilized with 0.05% Triton X-100 in phosphate-buffered saline for 5 min. Blocking steps were performed with 3% bovine serum albumin for 1 h followed by primary antibody incubation with rabbit polyclonal anti-beta amyloid 1-42 and polyclonal goat anti-green fluorescent protein. Antibodies were diluted 1:100 and 1:1000, respectively, and were incubated overnight. To visualize β-Amyloid antibodies, donkey anti-rabbit AlexaFluor® 555 secondary antibodies were used (diluted 1:400); to detect the GFP antibodies donkey anti-goat AlexaFluor® 647 secondary antibodies (diluted 1:400) were used. The samples were then mounted in Fluoromount-G™ with DAPI and analyzed with the BZ-9000 BIOREVO System (Keyence).
# Herpes virus infections and specifically HSV-1 infections are correlated to intracellular R-Amyloid and tau-protein deposition in cells of the CNS in progression of Alzheimer's disease. […] Therefore, in a first step the infectability of SH-SYSY neuroblastoma cells with HHV-1 was tested. After incubation of SH-SYSY cultures with HHV-1 (MOI=8), an infection rate of >90% (qualitatively) was detected that came along with high intracellular β-Amyloid deposition.
molecule,measurement,setting,value
"OC[C@H]1O[C@@H](Oc2cc3c(O)cc(O)cc3[o+]c2-c2ccc(O)c(O)c2)[C@H](O)[C@@H](O)[C@@H]1O [C3G, Cyanidin 3-glucoside]",inhibition of HSV-1 by single anthocyanins,HSV-1,Neither C3G nor D3Gal or Pet3G inhibited HSV-1
"OC[C@H]1OC(Oc2cc3c(O)cc(O)cc3[o+]c2-c2cc(O)c(O)c(O)c2)[C@H](O)C(O)C1O (stereo partly drawn) [D3G, Delphinidin 3-glucoside]",viral inhibition of HHV-8 (in words),HHV-8,identified as an active ingredient in Healthberry® 865
same,inhibition of HSV-1 by single anthocyanins,HSV-1,decreased viral infectivity like Healthberry® 865
"OC[C@H]1O[C@@H](Oc2cc3c(O)cc(O)cc3[o+]c2-c2cc(O)c(O)c(O)c2)[C@H](O)[C@@H](O)[C@H]1O [D3Gal, Delphinidin 3-galactoside]",inhibition of HSV-1 by single anthocyanins,HSV-1,Neither C3G nor D3Gal or Pet3G inhibited HSV-1
"COc1cc(-c2[o+]c3cc(O)cc(O)c3cc2O[C@@H]2O[C@H](CO)[C@@H](O)[C@H](O)[C@H]2O)cc(O)c1O [Pet3G, Petunidin 3-glucoside]",inhibition of HSV-1 by single anthocyanins,HSV-1,Neither C3G nor D3Gal or Pet3G inhibited HSV-1
maltodextrin,infected and β-Amyloid-positive cells,[1],HHV-1-infected cells were mostly β-Amyloid-positive
